Key:
[1] = DRUGMATRIX: Platelet-Derived Growth Factor (PDGF) radioligand binding (ligand: [125I] PDGF); format: cell-based; details: nih3t3; Not Active = under 50% inhibition at 10 µM
[2] = DRUGMATRIX: Potassium Channel [KATP] radioligand binding (ligand: [3H] Glyburide); format: cell membranes, Membrane; details: hit-t15; Not Active = under 50% inhibition at 10 µM
[3] = DRUGMATRIX: Glutamate, NMDA, Agonism radioligand binding (ligand: [3H] CGP-39653); format: cell membranes, Rattus norvegicus, Wistar, Cerebral cortex, Membrane; details: Not Active = under 50% inhibition at 10 µM
[4] = target: Melanocortin receptor 5 (Homo sapiens, UniProt P33032); format: cell membranes, HEK293, Membrane; details: hek293; note: in other assays of this panel Not Active means under 50% inhibition at 10 µM
[5] = target: C-C chemokine receptor type 5 (Homo sapiens, UniProt P51681); format: cell membranes, Membrane; details: hek293; note: in other assays of this panel Not Active means under 50% inhibition at 10 µM
[6] = target: Aldo-keto reductase family 1 member B1 (Rattus norvegicus, UniProt P07943); test: biochemical; format: tissue-based, Lens of camera-type eye;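 note: inhibition of aldose reductase enzyme activity, measured with DL-glyceraldehyde as the substrate; in other assays of this panel Not Active means under 50% inhibition at 10 µM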
[7] = target: T1, Cysteinyl leukotriene receptor 1 (Homo sapiens, UniProt Q9Y271); format: cell membranes, CHO-K1, Membrane; details: cho-k1; note: in other assays of this panel Not Active means under 50% inhibition at 10 µM
T1 sequence (Q9Y271 whole entry): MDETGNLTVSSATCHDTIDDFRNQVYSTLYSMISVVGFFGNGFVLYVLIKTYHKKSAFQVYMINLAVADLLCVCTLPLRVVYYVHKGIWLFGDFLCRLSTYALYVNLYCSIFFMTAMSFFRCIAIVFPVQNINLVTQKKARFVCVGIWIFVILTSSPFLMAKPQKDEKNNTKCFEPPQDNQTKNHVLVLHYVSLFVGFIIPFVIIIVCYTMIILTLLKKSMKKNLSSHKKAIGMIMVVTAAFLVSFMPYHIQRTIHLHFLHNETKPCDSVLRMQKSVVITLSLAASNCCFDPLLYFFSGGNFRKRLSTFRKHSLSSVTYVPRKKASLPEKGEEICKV

[8] = target: T2, Adenosine receptor A1 (Homo sapiens, UniProt P30542); format: cell membranes, CHO, Membrane; details: cho
T2 sequence (P30542 whole entry): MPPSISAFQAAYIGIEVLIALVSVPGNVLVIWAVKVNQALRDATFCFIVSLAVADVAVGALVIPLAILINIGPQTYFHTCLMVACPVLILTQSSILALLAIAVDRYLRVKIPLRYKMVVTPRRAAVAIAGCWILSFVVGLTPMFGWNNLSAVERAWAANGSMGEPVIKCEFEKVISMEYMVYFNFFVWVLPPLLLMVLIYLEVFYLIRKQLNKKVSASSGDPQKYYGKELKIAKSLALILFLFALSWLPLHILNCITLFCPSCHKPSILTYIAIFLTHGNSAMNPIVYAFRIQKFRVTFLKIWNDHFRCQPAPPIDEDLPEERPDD

C-C chemokine receptor type 5, sequence (P51681 whole entry): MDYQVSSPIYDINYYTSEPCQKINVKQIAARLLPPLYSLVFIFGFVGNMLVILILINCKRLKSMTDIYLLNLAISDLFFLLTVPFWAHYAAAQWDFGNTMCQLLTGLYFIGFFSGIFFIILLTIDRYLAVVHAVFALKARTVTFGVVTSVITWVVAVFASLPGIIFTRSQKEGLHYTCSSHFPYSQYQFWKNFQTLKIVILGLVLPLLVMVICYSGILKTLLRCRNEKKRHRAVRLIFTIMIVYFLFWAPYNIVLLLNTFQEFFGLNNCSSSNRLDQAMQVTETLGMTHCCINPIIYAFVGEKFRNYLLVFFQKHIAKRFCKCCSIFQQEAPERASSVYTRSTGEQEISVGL
Melanocortin receptor 5, sequence (P33032 whole entry): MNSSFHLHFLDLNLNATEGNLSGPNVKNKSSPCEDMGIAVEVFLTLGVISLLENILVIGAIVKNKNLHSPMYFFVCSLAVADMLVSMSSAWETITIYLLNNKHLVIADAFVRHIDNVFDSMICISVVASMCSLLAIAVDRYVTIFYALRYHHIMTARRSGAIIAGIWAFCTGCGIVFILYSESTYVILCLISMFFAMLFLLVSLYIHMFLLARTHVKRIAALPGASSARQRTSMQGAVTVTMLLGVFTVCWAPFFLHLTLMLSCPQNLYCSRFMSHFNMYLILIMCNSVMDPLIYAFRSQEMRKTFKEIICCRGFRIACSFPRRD

CC(C)CN(C[C@@H](O)[C@H](Cc1ccccc1)NC(=O)O[C@H]1CCOC1)S(=O)(=O)c1ccc(N)cc1
Not Active: IC50 [1] | Ki [1] | IC50 [2] | Ki [2] | IC50 [3] | Ki [3] | IC50 [4] | IC50 [5] | IC50 [6] | IC50 [7] | IC50 [8]

c1ccc(Nc2ccc(Nc3ccccc3)cc2)cc1
Not Active: IC50 [1] | Ki [1] | IC50 [2] | Ki [2] | IC50 [3] | Ki [3] | IC50 [4] | IC50 [5] | IC50 [6] | IC50 [7] | IC50 [8]

COc1cc2c3cc1Oc1cc(ccc1O)C[C@@H]1c4c(cc(OC)c(O)c4Oc4ccc(cc4)C[C@@H]3N(C)CC2)CC[N+]1(C)C.[Cl-]
Not Active: IC50 [1] | Ki [1] | IC50 [2] | Ki [2] | IC50 [3] | Ki [3] | IC50 [4] | IC50 [5] | IC50 [6] | IC50 [7] | IC50 [8]

NC(=O)N1c2ccccc2CCc2ccccc21
Not Active: IC50 [1] | Ki [1] | IC50 [2] | Ki [2] | IC50 [3] | Ki [3] | IC50 [4] | IC50 [5] | IC50 [6] | IC50 [7] | IC50 [8]

O=C1CC[C@@H](N2C(=O)c3ccccc3C2=O)C(=O)N1
Not Active: IC50 [1] | Ki [1] | IC50 [2] | Ki [2] | IC50 [3] | Ki [3] | IC50 [4] | IC50 [5] | IC50 [6] | IC50 [7] | IC50 [8]

Cc1onc(O)c1CC(N)C(=O)O (racemic) [(R,S)-AMPA]
Not Active: IC50 [1] | Ki [1] | IC50 [2] | Ki [2] | IC50 [3] | Ki [3] | IC50 [4] | IC50 [5] | IC50 [6] | IC50 [7] | IC50 [8]

Cc1ccc2cc3c(ccc4ccccc43)c3c2c1CC3 [3-METHYLCHOLANTHRENE]
Not Active: IC50 [1] | Ki [1] | IC50 [2] | Ki [2] | IC50 [3] | Ki [3] | IC50 [4] | IC50 [5] | IC50 [6] | IC50 [7] | IC50 [8]

CC[C@@]1(O)C[C@H](O[C@H]2C[C@H](N(C)C)[C@H](O[C@H]3C[C@H](O)[C@H](O[C@H]4CCC(=O)[C@H](C)O4)[C@H](C)O3)[C@H](C)O2)c2c(cc3c(c2O)C(=O)c2c(O)cccc2C3=O)[C@H]1C(=O)OC [ACLARUBICIN]
Not Active: IC50 [1] | Ki [1] | IC50 [2] | Ki [2] | IC50 [3] | Ki [3] | IC50 [4] | IC50 [5] | IC50 [6] | IC50 [7] | IC50 [8]

Nc1nc2c(ncn2COCCO)c(=O)[nH]1 [ACYCLOVIR]
Not Active: IC50 [1] | Ki [1] | IC50 [2] | Ki [2] | IC50 [3] | Ki [3] | IC50 [4] | IC50 [5] | IC50 [6] | IC50 [7] | IC50 [8]

Cc1c(C)c2c(c(C)c1O)CC[C@@](C)(CCC[C@H](C)CCC[C@H](C)CCCC(C)C)O2 [ALPHA-TOCOPHEROL]
Not Active: IC50 [1] | Ki [1] | IC50 [2] | Ki [2] | IC50 [3] | Ki [3] | IC50 [4] | IC50 [5] | IC50 [6] | IC50 [7] | IC50 [8]

CN(C)c1nc(N(C)C)nc(N(C)C)n1 [ALTRETAMINE]
Not Active: IC50 [1] | Ki [1] | IC50 [2] | Ki [2] | IC50 [3] | Ki [3] | IC50 [4] | IC50 [5] | IC50 [6] | IC50 [7] | IC50 [8]

Nc1c(Br)cc(Br)cc1CN[C@H]1CC[C@H](O)CC1 [AMBROXOL]
Not Active: IC50 [1] | Ki [1] | IC50 [2] | Ki [2] | IC50 [3] | Ki [3] | IC50 [4] | IC50 [5] | IC50 [6] | IC50 [7] | IC50 [8]

NCCCCCC(=O)O [AMINOCAPROIC ACID]
Not Active: IC50 [1] | Ki [1] | IC50 [2] | Ki [2] | IC50 [3] | Ki [3] | IC50 [4] | IC50 [5] | IC50 [6] | IC50 [7] | IC50 [8]

CCC1(c2ccc(N)cc2)CCC(=O)NC1=O (stereo unspecified) [AMINOGLUTETHIMIDE]
Not Active: IC50 [1] | Ki [1] | IC50 [2] | Ki [2] | IC50 [3] | Ki [3] | IC50 [4] | IC50 [5] | IC50 [6] | IC50 [7] | IC50 [8]

Cc1ccc(/N=C/N(C)/C=N/c2ccc(C)cc2C)c(C)c1 [AMITRAZ]
Not Active: IC50 [1] | Ki [1] | IC50 [2] | Ki [2] | IC50 [3] | Ki [3] | IC50 [4] | IC50 [5] | IC50 [6] | IC50 [7] | IC50 [8]

CCOC(=O)C1=C(COCCN)NC(C)=C(C(=O)OC)C1c1ccccc1Cl (stereo unspecified) [AMLODIPINE]
Not Active: IC50 [1] | Ki [1] | IC50 [2] | Ki [2] | IC50 [3] | Ki [3] | IC50 [4] | IC50 [5] | IC50 [6] | IC50 [7] | IC50 [8]
